How the values were obtained:
skin cancer = conditions: carotenoid-administered mice; incidence in control mice without carotenoid administration taken as 100%; cited from earlier work
lung cancer = conditions: cited from earlier work; for incidence of lung cancer: carotenoid-administered mice, incidence in control mice without carotenoid administration taken as 100%
liver cancer = conditions: carotenoid-administered mice; incidence in control mice without carotenoid administration taken as 100%; cited from earlier work
[1] = compared with β-carotene; cited from earlier work
[2] = test system: lipid peroxidation in rat brain homogenate; test: in vitro anti-peroxidation activity: lipid peroxidation in rat brain homogenate (TBA, A532); assay type: biochemical; conditions: for IC50: concentration halving A532 vs non-addition group, ascorbic acid 100 μM, pH 7.4, 37° C., 1 hr, read-out: IC50 (μM), inhibitory effect on lipid peroxidation in rat brain homogenate; for inhibitory effect on lipid peroxidation (in words): rat brain homogenate, in vitro
Protocol: Although various carotenoids have a wide variety of physiological activities and effects, it is believed that activity to inhibit peroxidation of lipids in the living body caused by oxygen radicals is the basis for all activities/effects. Therefore, in vitro inhibitory effects of the two carotenoids synthesized in Example 14 on lipid peroxidation caused by free radicals were examined using rat brain homogenate. This assay was conducted basically according to the method of Kubo et al. (Kubo, K., Yoshitake, Y., Kumada, K., Shuto K., Nakamizo, N. “Radical scavenging action of flunarizine in rat brain in vitro”. Arch. Int. Pharmacodyn. Ther. 272, 283-295, 1984). Briefly, 0.05 ml of methanol solution of a test sample, 0.1 ml of 1 mM ascorbic acid (final concentration 100 μM) and 0.05 ml of H2O were added to 0.6 ml of 100 mM phosphate buffer (pH 7.4) and pre-incubated at 37° C. for 5 min. Then, 0.2 ml of 2.5% (w/v) rat brain homogenate was added thereto to start reaction, followed by incubation at 37° C. for 1 hr under shaking. One milliliter of a mixed solution containing 20% (w/v) trichloroacetic acid, 0.5% (w/v) 2-thiobarbituric acid and 0.2 N HCl was added to the above reaction solution to terminate the reaction. The resultant solution was boiled at 100 ° C. for 30 min for color development. After cooling, the solution was centrifuged at 3000 rpm for 5 min. Absorbance at 532 nm (A532) of the resultant supernatant was measured. The concentration of test sample which is required to decrease the A532 of test sample addition group to one half of the A532 of test sample non-addition group was calculated as IC50. This value was taken as lipid peroxidation inhibitory effect in rat brain homogenate.

Row | Molecule | incidence of skin cancer (skin cancer) [%] | incidence of liver cancer (liver cancer) [%] | IC50 [2] [µM] | incidence of lung cancer (lung cancer) [%] | other results
1 | CC(C)=CCC/C(C)=C/C=C/C(C)=C/C=C/C(C)=C/C=C/C=C(C)/C=C/C=C(C)/C=C/C=C(\C)CCC=C(C)C [lycopene] | 10 | 100 |  |  | inhibition of lung cancer (in words) (lung cancer; comparison of the three carcinogenesis models): highly effective in inhibiting lung cancer
2 | CC1=C(/C=C/C(C)=C/C=C/C(C)=C/C=C/C=C(C)/C=C/C=C(C)/C=C/C2=C(C)C[C@@H](O)CC2(C)C)C(C)(C)CCC1 [β-cryptoxanthin] |  |  |  |  | intake ratio into the living body relative to β-carotene [1]: 10 times
3 | CC1=C(/C=C/C(C)=C/C=C/C(C)=C/C=C/C=C(C)/C=C/C=C(C)/C=C/C2=C(C)C(=O)CC(O)C2(C)C)C(C)(C)CCC1=O (single isomer, unassigned) [2-Hydroxycanthaxanthin, 2-hydroxy-β,β-carotene-4,4′-dione] |  |  | 8.1 |  | inhibitory effect on lipid peroxidation (in words) [2]: strong inhibitory effects on lipid peroxidation
4 | CC1=C[C@H](O)CC(C)(C)[C@H]1/C=C/C(C)=C/C=C/C(C)=C/C=C/C=C(C)/C=C/C=C(C)/C=C/C1=C(C)C[C@@H](O)CC1(C)C [lutein] |  | 50 |  | 70 | 
5 | CC1=C(/C=C/C(C)=C/C=C/C(C)=C/C=C/C=C(C)/C=C/C=C(C)/C=C/C2=C(C)C(=O)CCC2(C)C)C(C)(C)CCC1=O [Canthaxanthin] |  |  | 50 |  | 
6 | fucoxanthin | 10 | 30 |  |  | 
7 | CC1=CCCC(C)(C)C1/C=C/C(C)=C/C=C/C(C)=C/C=C/C=C(C)/C=C/C=C(C)/C=C/C1=C(C)CCCC1(C)C (stereo not drawn) [α-carotene] |  | 50 |  | 40 | 
8 | CC1=C(/C=C/C(C)=C/C=C/C(C)=C/C=C/C=C(C)/C=C/C=C(C)/C=C/C2=C(C)CCCC2(C)C)C(C)(C)CCC1 [β-Carotene, β-carotene] |  | 70 | > 100 | 139 | 
9 | CC1=C(/C=C/C(C)=C/C=C/C(C)=C/C=C/C=C(C)/C=C/C=C(C)/C=C/C2=C(C)C(=O)CC(O)C2(C)C)C(C)(C)C(O)CC1=O (single isomer, unassigned) [2,2′-Dihydroxycanthaxanthin, 2,2′-dihydroxy-β,β-carotene-4,4′-dione] |  |  | 4.8 |  | inhibitory effect on lipid peroxidation (in words) [2]: strong inhibitory effects on lipid peroxidation
10 | CC1=C(/C=C/C(C)=C/C=C/C(C)=C/C=C/C=C(C)/C=C/C=C(C)/C=C/C2=C(C)C(=O)[C@@H](O)CC2(C)C)C(C)(C)C[C@H](O)C1=O [astaxanthin] | 100 | 30 |  | 70 | 

From patent publication US7695931B2, “Carotenoid hydroxylase gene, method for preparing hydroxylated carotenoid, and novel geranylgeranyl pyrophosphate synthase” (Kirin Holdings Kabushiki Kaisha, priority 2003, dated 2010)
